Laboratory results taken from patent publication US7098195B2, “Fluorinated glucosamine analogs useful for modulating post-translational glycosylations on cells” (Health Research, Inc., priority 2001, dated 2006).
Like-named read-outs stand apart in the source and are kept apart here.

How the values were obtained:
[1] = system: HECA-452 epitopes on PSGL-1; experiment: Western blot of HECA-452 epitopes on PSGL-1 of CLA+ T-cells; assay type: cell-based, human
Method: For analysis of CLA expression on T-cells treated with glycoconjugate modifiers, CLA^+ T-cells were first pretreated with neuraminidase (0.1 U/ml at 37° C. for 1 h) to eliminate functional CLA and cleave all HECA-452 reactive epitopes from the cell surface (35–38). Since we wanted to investigate whether these compounds directly affected CLA expression and function, neuraminidase pretreatment followed by incubations with glycosylation modifiers allowed for examination of de novo synthesized CLA/HECA-452 epitopes re-expressed on the cell surface. After neuraminidase digestion, cells were then incubated with tunicamycin (0.02 mM) (an inhibitor of GlcNAc phosphotransferase, the initial step of N-glycosylation), swainsonine (0.23 mM) (an inhibitor of α-mannosidase II and complex-type N-glycosylation), 4-F-GlcNAc (0.05 mM) (putative inhibitor of poly-N-acetyllactosamine biosynthesis), BAG (an inhibitor of O-glycan biosynthesis) (<2 mM) or GlcNAc (5 mM) (negative control, naturally-occurring metabolic counterpart of 4-F-GlcNAc)for 30 h in the presence of human recombinant IL-2. […] Concentrations for BAG were selected based on maximal O-glycosylation inhibitory effects at non-growth inhibitory concentrations as previously reported (39). To determine a suitable concentration of 4-F-GlcNAc for examining glycoconjugate-modifying effects without influencing cell growth or protein synthesis, we performed preliminary growth inhibitory experiments of cells incubated with 4-F-GlcNAc for 2 cell doublings (˜36 h) at 37° C. (cell viability assessed by Trypan-blue exclusion).
For lysate preparation, cells (including radiolabeled cells) were washed 3× in ice cold PBS and lysed in buffer containing 150 mM NaCl, 50 mM Tris-HCl pH 7.4, 1 mM EDTA, 0.02% NaAzide, 20 μg/ml PMSF, Complete™ protease inhibitors cocktail tablets (Roche Molecular Biochemicals) and 2% NP-40 (250 μl/10^8 cells). Following 2 h incubation on ice, insoluble cellular debris was pelleted by centrifugation for 30 min at 10,000×g at 4° C. and solubilized protein lysate was collected and quantified by Bradford protein assay (Sigma Chemical). SDS was added to a final concentration of 1% in lysate preparations utilized for immunoprecipitation experiments.
For SDS-PAGE and Western blotting, cell lysates, membrane proteins or immunoprecipitates were diluted and boiled in reducing sample buffer, and separated on 7–9% SDS-PAGE gels. Resolved protein was transferred to Sequi-blot™ PVDF membrane (Bio-Rad, Inc., Hercules, Calif.) and blocked with FBS for 1 hr at RT. Blots were incubated with rat IgM anti-human CLA HECA-452 (1 μg/ml), mouse IgG anti-human PSGL-1 moAbs PL-2 (1 μg/ml), 203, 4F9 and 4D8 (1 μg each/ml), or mouse IgG anti-human CD43 L60 (1 μg/ml) for 1 hr at RT. Isotype control immunoblots using either rat IgM or mouse IgG were performed in parallel to evaluate non-specific reactive proteins. After three washes with PBS/0.1%Tween-20 (10 min/wash), blots were incubated with the respective secondary Ab, AP-conjugated goat anti-rat IgM (1:400) or goat anti-mouse IgG (1:8000). AP substrate, Western Blue® (Promega, Madison, Wis.) was then added to develop blots.
Cells were then re-cultured in the presence of glycosylation inhibitor, diluent control (PBS) or molecular control (GlcNAc) for 30 hr and then harvested for CLA expression and functional analysis. […] To assess the duration of anti-carbohydrate effects on HECA-452 expression on PSGL-1, cells treated with 4-F-GlcNAc for 30 h and were then re-cultured in non-4-F-GlcNAc-containing medium for 72 h.

[2] = system: α-mannose (ConA staining); assay type: cell-based, human; conditions: compared with PBS or GlcNAc treatments
Method: For lectin blotting, cell lysates (25 μg/spot) were spotted onto methanol-permeabilized PVDF membrane and blocked in FBS for 1 h at RT. Blots were then probed with AP-Canavalia ensiformis agglutinin (ConA) (2.0 μg/ml PBS; specificity: α-mannose), AP-Triticum vulgaris (Wheat germ) agglutinin (WGA) (0.5 μg/ml PBS; specificity: terminal GlcNAc or GlcNAcβ1,4GlcNAc) or AP-Lycopersicon esculentum (tomato lectin) agglutinin (LEA) (1.0 μg/ml PBS; specificity: (Galβ1,4GlcNAc)n) for 1 h at RT (All lectins from EY Labs., Inc., San Mateo, Calif.). After washing 3× in PBS/0.1% Tween-20 and 1× in PBS (10 min each), blots were developed with Western Blue®.
To analyze and identify the glycan modifications on CLA^+ T-cells treated with 4-F-GlcNAc, lectin blotting experiments were performed with ConA (Specificity: α-mannose), WGA (Specificity: terminal GlcNAc or GlcNAcβ1,4GlcNAc) and LEA (Specificity: {Galβ1,4GlcNAc}n).

[3] = system: P-selectin ligand activity of murine Th1 cells; experiment: Flow chamber analysis of P-selectin binding on murine Th1 cells; assay type: cell-based, mouse
Excerpt: CD4+ splenocytes were isolated from C57BL-6 mice by anti-murine CD4 L3T4 magnetic bead technology (Miltenyi Biotec) according to manufacturer's protocol. […] Culturing murine T helper cells in the presence of murine IL-12 and anti-murine IL-4 produces selectin binding Th1 cells by up-regulating FucTVII (69, 70) and core 2 enzyme (43–45, 71, 72), both critical for selectin ligand synthesis (i.e. decoration of PSGL-1 (67, 68)), and prevents the production of non-selectin binding Th2 cells (67–72). Th1 cells were also generated from mice deficient in α1,3 fucosyltransferase, FucTVII, and served as negative controls (33, 38, 40). Cells were harvested and re-plated at 2×10^6cells/ml on non-Ab coated plastic with murine IL-2 (20 ng/ml) in the presence or absence of murine IL-12 (10 ng/ml) and anti-murine IL-4 moAb 11B11 (10 μg/ml) for 48 h. […] Glycosylation inhibitors were added to cultures on day 6.5 for 30 hr, after first treating cells with neuraminidase (0.1 U/ml for 1 hr at 37° C.) to remove all cell surface terminal sialic acid resides and E and P-selectin ligand activity. Since selectin ligands are dependent on terminal sialic acid (α2,3 N-acetylneuraminic acid) for activity, this approach allowed for analysis of de novo synthesized selectin ligands in the presence of 0.05 mM 4-F-GlcNAc, N-glycan inhibitors, 0.23 mM swainsonine and 0.02 mM tunicamycin, and 1 mM GlcNAc (negative control).

[4] = 30 h after neuraminidase, tunicamycin 0.02 mM, swainsonine 0.23 mM, 4-F-GlcNAc 0.05 mM, BAG 2.0 mM, GlcNAc 5.0 mM
[5] = 30 hr after neuraminidase, 0.05 mM 4-F-GlcNAc, 0.23 mM swainsonine, 0.02 mM tunicamycin, 1 mM GlcNAc

Compound	potency at lowering HECA-452 expression relative to BAG, on a molar basis [1]	de novo synthesized HECA-452 epitopes on PSGL-1 (Western blot) [1, 4]	duration of suppression of HECA-452 expression on PSGL-1 after removal of drug ([1]; treated for 30 h then re-cultured in non-4-F-GlcNAc-containing medium for 72 h) [h]	ConA staining of lysates [2]	recovery of P-selectin ligand activity of Th1 cells [3, 5]	de novo synthesized HECA-452 epitopes on PSGL-1 (Western blot) [1]	recovery of P-selectin ligand activity of Th1 cells [3]	potency at lowering HECA-452 expression relative to 4-F-GlcNAc, on a molar basis [1] [fold]	effects on HECA-452 expression ([1]; below 0.015 mM, preliminary, data not shown)
CC(=O)N[C@H]1C(OC(C)=O)O[C@H](COC(C)=O)[C@@H](F)[C@@H]1OC(C)=O (stereo partly drawn) [4-F-GlcNAc, 2-acetamido-2-deoxy-1,3,6-tri-O-acetyl-4-deoxy-4-fluoro-D-glucopyranose]	more potent than BAG	marked reduction	48	no effect	completely inhibited	–	–	–	–
CC(=O)N[C@H]1C(O)O[C@H](CO)[C@@H](O)[C@@H]1O (stereo partly drawn) [GlcNAc, N-acetylglucosamine]	–	not affected	–	–	no effect	–	–	–	–
O[C@H]1[C@H]2[C@H](O)CCCN2C[C@H]1O [swainsonine]	–	–	–	enhanced	–	not affected	no effect	–	–
tunicamycin	–	–	–	eliminated	–	marked reduction	completely inhibited	2.5	minimal effects
